Patent US10294202B2, “Pyrrolidinones as herbicides” (FMC Corporation, priority 2013, dated 2019)

Assays:
wheat = assay: Test A pre-/postemergence herbicide test; assay type: in vivo, Triticum aestivum; details: for Wheat plant response rating: Preemergence, visual rating on 0 to 100 scale (0 no effect, 100 complete control)
Method in brief: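 Scoring was visual, relative to untreated controls, on a 0–100 scale after about 10 greenhouse days. Preemergence treatment used a directed soil spray over seeded loam/sand; postemergence treatment targeted one- to two-leaf plants of 2–10 cm.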

corn = assay: Test C pre-/postemergence herbicide test; assay type: in vivo, Zea mays; details: Preemergence; for Corn plant response rating: 31 g ai/ha
Method in brief: (§1)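 Response scores range from 0, meaning no effect, to 100, meaning complete control, assigned visually by comparison with controls roughly two weeks (13 to 15 days) after spraying. Applications were made preemergence to seeded loam–sand soil and postemergence to 1- to 4-leaf plants.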

soybean = assay: Test C pre-/postemergence herbicide test; assay type: in vivo, Glycine max; details: Preemergence; for Soybean plant response rating: 31 g ai/ha, scale 0 to 100, 0 is no effect and 100 is complete control
Method in brief: as §1

barnyardgrass = assay: Test B flooded paddy test; assay type: in vivo, Echinochloa crus-galli; details: 250 g ai/ha, Flood; scale of 0 to 100 where 0 is no effect and 100 is complete control
Method in brief: (§2)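 First, plants reach the 2-leaf stage; next, pots are flooded to 3 cm and compound is delivered into the water; finally, after 13 to 15 greenhouse days at constant depth, injury is graded visually from 0 to 100 against controls.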

rice = assay: Test B flooded paddy test; assay type: in vivo, Oryza sativa; details: 250 g ai/ha, Flood; scale of 0 to 100 where 0 is no effect and 100 is complete control
Method in brief: as §2

ragweed = assay: Test C pre-/postemergence herbicide test; assay type: in vivo, Ambrosia elatior; details: Preemergence; for Ragweed plant response rating: 31 g ai/ha, scale 0 to 100, 0 is no effect and 100 is complete control
Method in brief: as §1

nutsedge, yellow = assay: Test C pre-/postemergence herbicide test; assay type: in vivo, Cyperus esculentus; details: Preemergence; for Nutsedge, Yellow plant response rating: 31 g ai/ha, scale 0 to 100, 0 is no effect and 100 is complete control
Method in brief: as §1

sedge, umbrella = assay: Test B flooded paddy test; assay type: in vivo, Cyperus difformis; details: 250 g ai/ha, Flood; scale of 0 to 100 where 0 is no effect and 100 is complete control
Method in brief: as §2

pigweed = assay: Test C pre-/postemergence herbicide test; assay type: in vivo, Amaranthus retroflexus; details: Preemergence; for Pigweed plant response rating: 31 g ai/ha, scale 0 to 100, 0 is no effect and 100 is complete control
Method in brief: as §1

johnsongrass = assay: Test C pre-/postemergence herbicide test; assay type: in vivo, Sorghum halepense; details: Preemergence; for Johnsongrass plant response rating: 31 g ai/ha, scale 0 to 100, 0 is no effect and 100 is complete control
Method in brief: as §1

ryegrass, Italian = assay: Test C pre-/postemergence herbicide test; assay type: in vivo, Lolium multiflorum; details: Preemergence; for Ryegrass, Italian plant response rating: 31 g ai/ha, scale 0 to 100, 0 is no effect and 100 is complete control
Method in brief: as §1

ducksalad = assay: Test B flooded paddy test; assay type: in vivo, Heteranthera limosa; details: 250 g ai/ha, Flood; scale of 0 to 100 where 0 is no effect and 100 is complete control
Method in brief: as §2

[1] = Postemergence, 125 g ai/ha, 0 to 100 scale, 0 no effect, 100 complete control
[2] = Postemergence, 500 g ai/ha, 0 to 100 scale (0 no effect, 100 complete control)
[3] = preemergence, 500 g ai/ha, 0 to 100 scale
[4] = scale 0 to 100, 0 is no effect and 100 is complete control
[5] = 125 g ai/ha, scale 0 to 100 (0 no effect, 100 complete control)
[6] = 250 g ai/ha, scale 0 to 100 (0 no effect, 100 complete control)
[7] = scale 0 to 100 (0 no effect, 100 complete control)

SMILES | Plant response rating, Wheat (wheat; [1]) | Plant response rating, Wheat (wheat; [2]) | Wheat plant response rating (wheat; 125 g ai/ha) | Plant response rating, Wheat (wheat; [3]) | Plant response rating, Corn (corn; 62 g ai/ha, scale 0 to 100) | Plant response rating, Corn (corn; [5]) | Plant response rating, Corn (corn; [6]) | Plant response rating, Soybean (soybean; 62 g ai/ha, scale 0 to 100) | Plant response rating, Soybean (soybean; [5]) | Plant response rating, Barnyardgrass (barnyardgrass) | Plant response rating, Rice (rice) | Plant response rating, Ragweed (ragweed; 62 g ai/ha, scale 0 to 100) | Plant response rating, Ragweed (ragweed; [5]) | Plant response rating, Nutsedge, Yellow (nutsedge, yellow; 62 g ai/ha, scale 0 to 100) | Plant response rating, Nutsedge, Yellow (nutsedge, yellow; [5]) | Plant response rating, Sedge, Umbrella (sedge, umbrella) | Plant response rating, Pigweed (pigweed; 62 g ai/ha, scale 0 to 100) | Plant response rating, Ryegrass, Italian (ryegrass, Italian; 62 g ai/ha, scale 0 to 100) | Plant response rating, Ryegrass, Italian (ryegrass, Italian; [5]) | Plant response rating, Ducksalad (ducksalad) | further results
O=C1NCC(c2cccc(OC(F)(F)F)c2)C1C(=O)Nc1cccc(F)c1F (stereo not drawn) [Compound 68] | 0 | 20 | 0 | 20 | 25 | 25 | 50 | 0 | 10 | 40 | 25 | 0 | 0 | 10 | 10 | 70 | 75 | 0 | 0 | 90 | Corn plant response rating (corn; [4]): 15; Soybean plant response rating (soybean): 0; Ragweed plant response rating (ragweed): 0; Nutsedge, Yellow plant response rating (nutsedge, yellow): 10; Pigweed plant response rating (pigweed): 45; Plant response rating, Pigweed (pigweed; [5]): 85; Johnsongrass plant response rating (johnsongrass): 0; Plant response rating, Johnsongrass (johnsongrass; 62 g ai/ha, scale 0 to 100): 35; Plant response rating, Johnsongrass (johnsongrass; [5]): 40; Ryegrass, Italian plant response rating (ryegrass, Italian): 0
O=C1NCC(c2cccc(Br)c2)C1C(=O)Nc1cccc(F)c1F (stereo not drawn) [Compound 64] | 0 | 40 | 0 | 0 | 0 | 55 | 60 | 35 | 40 | 0 | 15 | 0 | 30 | 20 | 20 | 40 | 0 | 0 | 0 | 80 | Corn plant response rating (corn; [7]): 0; Plant response rating, Pigweed (pigweed; [5]): 30; Plant response rating, Johnsongrass (johnsongrass; 62 g ai/ha, scale 0 to 100): 40; Plant response rating, Johnsongrass (johnsongrass; [5]): 75
O=C1NCC(c2cccc(Br)c2)C1C(=O)Nc1ccccc1F (stereo not drawn) [Compound 66] | 0 | 30 | 0 | 20 | 0 | 10 | 20 | 20 | 20 | 0 | 0 | 20 | 25 | 0 | 0 | 50 | 0 | 0 | 0 | 75 | Corn plant response rating (corn; [4]): 0; Soybean plant response rating (soybean): 15; Ragweed plant response rating (ragweed): 10; Nutsedge, Yellow plant response rating (nutsedge, yellow): 0; Pigweed plant response rating (pigweed): 0; Plant response rating, Pigweed (pigweed; [5]): 0; Johnsongrass plant response rating (johnsongrass): 30; Ryegrass, Italian plant response rating (ryegrass, Italian): 0
O=C1NCC(c2ccc3c(c2)OC(F)(F)O3)C1C(=O)Nc1cccc(F)c1F (stereo not drawn) [Compound 62] | 20 | 60 | 0 | 0 | 20 | 30 | 55 | 30 | 35 | 20 | 0 | 15 | 45 | 10 | 20 | 80 | 40 | 0 | 30 | 75 | Corn plant response rating (corn; [7]): 20; Plant response rating, Pigweed (pigweed; [5]): 70; Plant response rating, Johnsongrass (johnsongrass; 62 g ai/ha, scale 0 to 100): 10; Plant response rating, Johnsongrass (johnsongrass; [5]): 30
O=C1NCC(c2ccc(F)c(Cl)c2)C1C(=O)Nc1cccc(F)c1F (stereo not drawn) [Compound 59] | 0 | 60 | 0 | 0 | 10 | 10 | 45 | 15 | 20 | 40 | 20 | 0 | 0 | 0 | 0 | 60 | 35 | 0 | 0 | 75 | Corn plant response rating (corn; [7]): 0; Plant response rating, Johnsongrass (johnsongrass; 62 g ai/ha, scale 0 to 100): 0; Plant response rating, Johnsongrass (johnsongrass; [5]): 0
